Results as given in ChEMBL document CHEMBL4673359, “Molecular docking and synthesis of caffeic acid analogous and its anti-inflammatory, analgesic and ulcerogenic studies” (Bioorg Med Chem Lett, 2021).

Tests used:
Mus musculus = test: Analgesic activity in Swiss albino mouse assessed as inhibition of acetic acid-induced writhing at 20 mg/kg, po administered 30 mins prior to acetic acid treatment and measured for 20 mins; format: functional; parameters: scale not given: the % may be the effect or the level left; conditions: time 50 min
[1] = Acute toxicity in Wistar rat assessed as survival at 200 mg/kg, po administered for 7 days and observed for 14 days; format: organism-based; conditions: in vivo, 336 h, time 14 day
Rattus norvegicus [2] = test: Anti-inflammatory activity in Wistar rat assessed as inhibition of carrageenan-induced paw edema at 20 mg/kg, po administered 1 hr prior to carrageenan stimulation and measured after 3 hrs by plethysmometric method relative to control; format: functional; parameters: scale not given: the % may be the effect or the level left; conditions: time 4 hrs
[3] = Acute toxicity in Swiss albino mouse assessed as survival at 100 mg/kg, po administered for 7 days and observed for 14 days; format: organism-based; conditions: in vivo, 336 h, time 14 day
[4] = Acute toxicity in Swiss albino mouse assessed as behavioral changes at 100 mg/kg, po administered for 7 days and observed for 14 days; format: organism-based; conditions: in vivo, 336 h, time 14 day
[5] = Acute toxicity in Swiss albino mouse assessed as behavioral changes at 200 mg/kg, po administered for 7 days and observed for 14 days; format: organism-based; conditions: in vivo, 336 h, time 14 day
[6] = biological target: T1, Prostaglandin G/H synthase 2 (Homo sapiens, UniProt P35354); test: Inhibition of COX-2 (unknown origin) assessed as reduction in PGH2 formation using arachidonic acid as substrate preincubated for 5 mins followed by substrate addition and measured after 2 mins by enzyme immunoassay
T1 sequence (P35354 whole entry): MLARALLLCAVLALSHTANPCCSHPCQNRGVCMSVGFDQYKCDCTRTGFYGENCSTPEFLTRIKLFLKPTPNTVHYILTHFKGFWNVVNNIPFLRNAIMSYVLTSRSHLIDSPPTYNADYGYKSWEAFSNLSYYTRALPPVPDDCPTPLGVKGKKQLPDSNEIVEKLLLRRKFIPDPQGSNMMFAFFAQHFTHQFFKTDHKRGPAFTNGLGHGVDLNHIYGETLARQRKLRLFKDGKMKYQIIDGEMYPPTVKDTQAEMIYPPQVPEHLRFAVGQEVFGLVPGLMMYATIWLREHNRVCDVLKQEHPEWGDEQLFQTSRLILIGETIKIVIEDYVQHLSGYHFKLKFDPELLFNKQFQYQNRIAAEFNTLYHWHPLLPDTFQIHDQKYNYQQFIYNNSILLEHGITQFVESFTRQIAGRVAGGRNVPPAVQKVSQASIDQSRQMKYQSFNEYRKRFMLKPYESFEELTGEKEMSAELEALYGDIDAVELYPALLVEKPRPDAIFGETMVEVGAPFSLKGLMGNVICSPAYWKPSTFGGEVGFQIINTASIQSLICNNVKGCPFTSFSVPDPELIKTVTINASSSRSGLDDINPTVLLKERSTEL

[7] = Acute toxicity in Wistar rat assessed as behavioral changes at 200 mg/kg, po administered for 7 days and observed for 14 days; format: organism-based; conditions: in vivo, 336 h, time 14 day
[8] = Acute toxicity in Swiss albino mouse assessed as survival at 200 mg/kg, po administered for 7 days and observed for 14 days; format: organism-based; conditions: in vivo, 336 h, time 14 day
[9] = Acute toxicity in Wistar rat assessed as behavioral changes at 100 mg/kg, po administered for 7 days and observed for 14 days; format: organism-based; conditions: in vivo, 336 h, time 14 day
[10] = biological target: Prostaglandin G/H synthase 1 (Homo sapiens, UniProt P23219); test: Inhibition of COX-1 (unknown origin) assessed as reduction in PGH2 formation using arachidonic acid as substrate preincubated for 5 mins followed by substrate addition and measured after 2 mins by enzyme immunoassay
[11] = Acute toxicity in Wistar rat assessed as survival at 100 mg/kg, po administered for 7 days and observed for 14 days; format: organism-based; conditions: in vivo, 336 h, time 14 day
Rattus norvegicus [12] = test: Anti-inflammatory activity in Wistar rat assessed as inhibition of carrageenan-induced paw edema at 20 mg/kg, po administered 1 hr prior to carrageenan stimulation and measured after 4 hrs by plethysmometric method relative to control; format: functional; parameters: scale not given: the % may be the effect or the level left; conditions: time 5 hrs
[13] = Ulcerogenic activity in Wistar rat assessed as incidence of gastric ulceration by measuring severity index at 60 mg/kg, po measured after 17 hrs by microscopic analysis; format: toxicity, organism-based; conditions: in vivo

Chain of Prostaglandin G/H synthase 1 (P23219 whole entry): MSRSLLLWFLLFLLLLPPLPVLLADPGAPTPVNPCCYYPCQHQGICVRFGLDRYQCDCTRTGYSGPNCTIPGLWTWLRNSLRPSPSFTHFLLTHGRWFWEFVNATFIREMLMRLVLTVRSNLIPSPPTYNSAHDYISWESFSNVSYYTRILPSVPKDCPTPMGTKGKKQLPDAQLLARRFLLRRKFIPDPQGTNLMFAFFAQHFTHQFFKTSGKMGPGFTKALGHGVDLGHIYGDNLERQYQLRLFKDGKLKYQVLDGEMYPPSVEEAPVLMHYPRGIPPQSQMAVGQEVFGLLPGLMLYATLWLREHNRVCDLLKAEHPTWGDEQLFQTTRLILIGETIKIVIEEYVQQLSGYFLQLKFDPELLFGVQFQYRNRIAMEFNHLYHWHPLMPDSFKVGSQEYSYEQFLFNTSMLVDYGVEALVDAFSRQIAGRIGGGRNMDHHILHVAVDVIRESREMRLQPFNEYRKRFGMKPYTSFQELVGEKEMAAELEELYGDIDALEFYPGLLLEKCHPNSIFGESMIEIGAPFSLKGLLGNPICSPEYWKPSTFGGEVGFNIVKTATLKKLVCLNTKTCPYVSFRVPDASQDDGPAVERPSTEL

| Compound | Activity (Mus musculus) | Activity [1] | Activity (Rattus norvegicus [2]) | Activity [3] | Activity [4] | Activity [5] | IC50 [6] | Activity [7] | Activity [8] | Activity [9] | IC50 [10] | Activity [11] | Activity (Rattus norvegicus [12]) | Activity_index [13] |
| --- | --- | --- | --- | --- | --- | --- | --- | --- | --- | --- | --- | --- | --- | --- |
| O=C(/C=C/c1ccc(O)c(O)c1)NNC(=O)COc1cccnc1 | 53.41% | Non-Toxic | 63.96% | Non-Toxic | Non-Toxic | Non-Toxic | 5 µM | Non-Toxic | Non-Toxic | Non-Toxic | 182 µM | Non-Toxic | 60.82% | 0.4 |
| Cc1ccc2cccc(OCC(=O)NNC(=O)/C=C/c3ccc(O)c(O)c3)c2n1 | 49.02% | Non-Toxic | 57.19% | Non-Toxic | Non-Toxic | Non-Toxic | – | Non-Toxic | Non-Toxic | Non-Toxic | – | Non-Toxic | 53.15% | 0.57 |
| O=C(/C=C/c1ccc(O)c(O)c1)NNC(=O)COc1cccc2cccnc12 | 57.3% | Non-Toxic | 66.61% | Non-Toxic | Non-Toxic | Non-Toxic | 4.9 µM | Non-Toxic | Non-Toxic | Non-Toxic | 126 µM | Non-Toxic | 61.47% | 0.53 |
| O=C(/C=C/c1ccc(O)c(O)c1)NNC(=O)COc1ccc(Cl)cc1 | 67.85% | Non-Toxic | 75.17% | Non-Toxic | Non-Toxic | Non-Toxic | 3.17 µM | Non-Toxic | Non-Toxic | Non-Toxic | 214 µM | Non-Toxic | 72.29% | 0.76 |
| O=C(/C=C/c1ccc(O)c(O)c1)NNC(=O)COc1ccc(Br)cc1 | 71.35% | Non-Toxic | 74.9% | Non-Toxic | Non-Toxic | Non-Toxic | 3.4 µM | Non-Toxic | Non-Toxic | Non-Toxic | 233 µM | Non-Toxic | 71.15% | 0.78 |
| Cc1ccc(OCC(=O)NNC(=O)/C=C/c2ccc(O)c(O)c2)c(C)c1 | 45.21% | Non-Toxic | 67.18% | Non-Toxic | Non-Toxic | Non-Toxic | 2.1 µM | Non-Toxic | Non-Toxic | Non-Toxic | 107 µM | Non-Toxic | 64.45% | 0.26 |
| O=C(/C=C/c1ccc(O)c(O)c1)NNC(=O)COc1cccc2ccccc12 | 50.7% | Non-Toxic | 49.96% | Non-Toxic | Non-Toxic | Non-Toxic | – | Non-Toxic | Non-Toxic | Non-Toxic | – | Non-Toxic | 44.45% | 0.46 |
| O=C(/C=C/c1ccc(O)c(O)c1)NNC(=O)COc1ccc2ccccc2c1 | 65.1% | Non-Toxic | 51.61% | Non-Toxic | Non-Toxic | Non-Toxic | – | Non-Toxic | Non-Toxic | Non-Toxic | – | Non-Toxic | 48.7% | 0.57 |
| Cc1ccc(-c2cc(C(F)(F)F)nn2-c2ccc(S(N)(=O)=O)cc2)cc1 [CELECOXIB] | 73.53% | – | 78% | – | – | – | – | – | – | – | – | – | 74.56% | – |
| Cc1ccccc1OCC(=O)NNC(=O)/C=C/c1ccc(O)c(O)c1 | 49.18% | Non-Toxic | 54.96% | Non-Toxic | Non-Toxic | Non-Toxic | – | Non-Toxic | Non-Toxic | Non-Toxic | – | Non-Toxic | 49.83% | 0.58 |
| Cc1ccc(OCC(=O)NNC(=O)/C=C/c2ccc(O)c(O)c2)cc1 | 64.68% | Non-Toxic | 58.71% | Non-Toxic | Non-Toxic | Non-Toxic | – | Non-Toxic | Non-Toxic | Non-Toxic | – | Non-Toxic | 55.53% | 0.38 |
